# Measured values taken from patent US20240376097A1, “BCL-2 Inhibitor” (BeiGene Ltd., priority 2020, published 2024).
# Assays:
# [1] = system: RS4;11 (BCL-2 dependent acute lymphoblastic leukemia cell line); assay: RS4;11 Cell Proliferation Assay; format: cell-based; details: Homo sapiens, RS4-11, RS4;11 cells, read-out: Cellular proliferation assay (IC50, nM) RS4
# Procedure, shortened: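 RS4;11 cells, 50,000 per well in RPMI-1640 with 10% FBS, treated 48 h at 37 °C with a 10-point dilution series topping at 1 μM. Viability read by CellTiter-Glo ATP luminescence; mean IC50 reported.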
# [2] = molecular target: Recombinant human Bcl-2 protein (Homo sapiens (Human), UniProt P10415); assay: Bcl-2 TR-FRET Assay; format: binding; details: Bcl-2 wild type, TR-FRET; read-out: Biochemical assay (IC50, nM) Bcl-2 WT
# Procedure, shortened: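 0.05 nM Bcl-2 pre-incubated 0.5 h at room temperature with 10-point compound dilutions (top final 1, 0.1, 0.02 or 0.01 uM) in 20 mM potassium phosphate pH 7.5, 50 mM NaCl, 1 mM EDTA, 0.05% Tween-20, 0.01% BSA; FITC-Bak peptide (0.5 nM) and anti-6His Tb cryptate added, 1 h. IC50 from four-parameter logistic fit.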
# [3] = system: recombinant human Bcl-2-G101V protein; assay: Bcl-2-G101V TR-FRET Assay; format: binding; details: ratio of biochemical IC50 Bcl-2 G101V / Bcl-2 WT
# Procedure, shortened: (§1)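 Ex337/em490 & 520 nm TR-FRET; % inhibition of Bcl-2-G101V–ligand interaction from 490:520 ratio vs. increasing compound conc.; IC50 by 4-parameter logistic fit.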
# [4] = molecular target: recombinant human Bcl-2-G101V protein (Homo sapiens (Human), UniProt P10415, G101V); assay: Bcl-2-G101V TR-FRET Assay; format: binding; details: Bcl-2 G101V mutant, TR-FRET; read-out: Biochemical assay (IC50, nM) Bcl-2 G101V
# Procedure, shortened: as §1
# [5] = system: BCL-2 G101V knock-in cell line H96 (derive from RS4;11); assay: Bcl 2-G101V Knock-In RS4;11 Cell Proliferation Assay; format: cell-based; details: Homo sapiens, RS4;11 Bcl-2 G101V knock-in clone H96, 48 hrs, CellTiter-GLO, read-out: Cellular proliferation assay (IC50, nM) RS4
# Procedure, shortened: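 H96, a CRISPR-generated RS4;11 clone carrying BCL2-G101V knock-in (WES/RNA-seq validated), seeded 50,000 per well and exposed 48 h at 37 °C to 10-point dilutions topping at 1 or 10 μM. Viability by CellTiter-Glo luminescence; mean IC50.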
Structure (SMILES),IC50 [1] [nM],IC50 [2] [nM],Ratio of Bcl-2 G101V/WT [3],IC50 [4] [nM],IC50 [5] [nM]
"COc1ccc(CN2CCN(C3CC4(CCN(c5ccc(C(=O)NS(=O)(=O)c6ccc(NC[C@H]7CC[C@](C)(O)CC7)c([N+](=O)[O-])c6)c(Oc6cnc7[nH]ccc7c6)c5)CC4)C3)C(c3ccccc3C(C)C)C2)cc1C1CC1 (stereo partly shown) [Example 136, 2-((1H-pyrrolo[2,3-b]pyridin-5-yl)oxy)-4-(2-(4-(3-cyclopropyl-4-methoxybenzyl)-2-(2-isopropylphenyl)piperazin-1-yl)-7-azaspiro[3.5]nonan-7-yl)-N-((4-((((1r,4r)-4-hydroxy-4-methylcyclohexyl)methyl)amino)-3-nitrophenyl)sulfonyl)benzamide]",0.51,0.75,3.8,2.9,4.6
"CC(C)c1ccccc1C1CN(Cc2cccc3ccoc23)CCN1C1CC2(CCN(c3ccc(C(=O)NS(=O)(=O)c4ccc(NC[C@H]5CC[C@](C)(O)CC5)c([N+](=O)[O-])c4)c(Oc4cnc5[nH]ccc5c4)c3)CC2)C1 (stereo partly shown) [Example 137, 2-((1H-pyrrolo[2,3-b]pyridin-5-yl)oxy)-4-(2-(4-(benzofuran-7-ylmethyl)-2-(2-isopropylphenyl)piperazin-1-yl)-7-azaspiro[3.5]nonan-7-yl)-N-((4-((((1r,4r)-4-hydroxy-4-methylcyclohexyl)methyl)amino)-3-nitrophenyl)sulfonyl)benzamide]",0.89,0.62,5.1,3.2,9.6
"COc1ccc(OC2CCN(C3CC4(CCN(c5ccc(C(=O)NS(=O)(=O)c6ccc(NC[C@H]7CC[C@](C)(O)CC7)c([N+](=O)[O-])c6)c(Oc6cnc7[nH]ccc7c6)c5)CC4)C3)C(c3ccccc3C(C)C)C2)cc1 (stereo partly shown) [Example 138, 2-((1H-pyrrolo[2,3-b]pyridin-5-yl)oxy)-N-((4-((((1r,4r)-4-hydroxy-4-methylcyclohexyl)methyl)amino)-3-nitrophenyl)sulfonyl)-4-(2-(2-(2-isopropylphenyl)-4-(4-methoxyphenoxy)piperidin-1-yl)-7-azaspiro[3.5]nonan-7-yl) benzamide]",0.44,0.36,4.1,1.5,3
"COc1ccc(CN2CCN(C3CC4(C3)CN(c3ccc(C(=O)NS(=O)(=O)c5ccc(NC[C@H]6CC[C@](C)(O)CC6)c([N+](=O)[O-])c5)c(Oc5cnc6[nH]cc(F)c6c5)c3)C4)[C@@H](c3ccccc3C(C)C)C2)cc1OC [Example 141b, 4-(6-((S)-4-(3,4-dimethoxybenzyl)-2-(2-isopropylphenyl)piperazin-1-yl)-2-azaspiro[3.3]heptan-2-yl)-2-((3-fluoro-1H-pyrrolo[2,3-b]pyridin-5-yl)oxy)-N-((4-((((1r,4r)-4-hydroxy-4-methylcyclohexyl)methyl)amino)-3-nitrophenyl)sulfonyl)benzamide]",0.659,0.059,40,2.3,4.09
"C#Cc1ccc(CN2CCN(C3CC4(CCN(c5ccc(C(=O)NS(=O)(=O)c6ccc(NC[C@H]7CC[C@](C)(O)CC7)c([N+](=O)[O-])c6)c(Oc6cnc7[nH]ccc7c6)c5)CC4)C3)C(c3ccccc3C(C)C)C2)cc1 (stereo partly shown) [Example 142, 2-((1H-pyrrolo[2,3-b]pyridin-5-yl)oxy)-4-(2-(4-(4-ethynylbenzyl)-2-(2-isopropylphenyl)piperazin-1-yl)-7-azaspiro[3.5]nonan-7-yl)-N-((4-((((1r,4r)-4-hydroxy-4-methylcyclohexyl)methyl)amino)-3-nitrophenyl)sulfonyl)benzamide]",0.795,0.56,5.3,3,6.22
